Measurements published in patent US8337835B2, “Use of an endogenous ligand for peroxisome proliferator activated receptor alpha to treat liver disorders” (priority 2009, dated 2012).

System: PPARα target gene (ACO and CPT-1) expression
Assay: PPARα target gene (ACO and CPT-1) expression by quantitative RT-PCR in Hepa 1-6 cells
Type: cell-based
Settings: Hepa 1-6 mouse hepatoma cells, 24 h, serum-free DMEM
Procedure: RT-PCR gene expression analysis and binding assays were employed to address this objective. Wy14,643, 16:0/18:1-GPC, and 18:1/16:0-GPC on PPARα target gene (ACO and CPT-1) expression was measured by quantitative RT-PCR in Hepa 1-6 cells treated for 24 h as in FIG. 6A. Results are mean±SEM of 9 separate experiments. *, P<0.05 compared to control (Ctrl, 80% PBS/20% DMSO).
The C57BL/6 mouse hepatoma cell line Hepa 1-6 (ATCC, CRL-1830) was expanded in DMEM with 10% fetal bovine serum. For experiments, cells were cultured to 50-60% confluence, washed twice with PBS, and the medium was changed to serum-free DMEM supplemented with the various types and concentrations of phosphatidylcholine (sonicated to homogeneity in PBS/1% ethanol/4% fatty acid-free BSA), Wy14,643 (dissolved in 80% PBS/20% DMSO), or vehicle-only solutions. 24 h later, cells were washed, RNA prepared, and ACO and CPT-1 expression levels were determined by quantitative RT-PCR (see FIG. 6). For siRNA experiments, 50-60% confluent cells were treated with siRNAs or their scrambled controls (all diluted in PBS) for 72 h. Following the 72 h siRNA treatment, another set of cells received 16:0/18:1-GPC (using a concentration based on dose-response experiments) for an additional 24 h. Stealth™ siRNA oligonucleotides were used to inhibit the gene expression of mouse ChPT1 ([…]) (SEQ ID NO: 1) and CEPT1 ([…]) (SEQ ID NO: 2) were from Invitrogen (Carlsbad, Calif.).
Total RNA was extracted from Hepa 1-6 cells and liver using Trizol (Invitrogen) and treated with DNase I (RNase-free, Roche Molecular Biochemicals). Reverse transcription to cDNA and real-time quantitative PCR were performed using previously published procedures and primer-probe sequences for ACO and CPT-1 (Chakravarthy et al., 2005). […] Relative mRNA levels were calculated using both the comparative CT and standard curve methods normalized to ribosomal protein L32, an invariant internal control. […]

CCCCCCCC/C=C\CCCCCCCC(=O)OC[C@H](COP(=O)([O-])OCC[N+](C)(C)C)OC(=O)CCCCCCCCCCCCCCC [18:1/16:0-GPC, 1-oleoyl-2-palmitoyl-sn-glycero-3-phosphocholine, reference compound]
expression of PPARα-dependent genes ACO and CPT-I: does not induce PPARα-dependent gene expression
